Measurements published in US4833160A, “3-(3,5-di-tert-butyl-4-hydroxy benzylidene)-2-pyrrolidone and substituted derivatives thereof” (Eisai Co., Ltd., priority 1985, dated 1989).
Like-named read-outs stand apart in the source and are kept apart here.

Columns and labels:
[1] = Effect of inducing gastric ulcer; assay type: in vivo, male Fisher rat; details: rat, oral, fasted 24 hours, after six hours, read-out: UD50 (50% ulcer inducing dose)
Protocol: A male Fisher rat aged seven weeks was kept fasting for 24 hours and then each test compound suspended in a 5% aqueous solution of gum arabic was orally administered thereto.

adjuvant inflammation = test: Effect of lowering local surface temperature at inflammation (adjuvant inflammation, butter bacillus, hind foot); assay type: in vivo, male Fisher rat; details: Rattus norvegicus, 6 h, read-out: Dose (mg/kg) required for lowering local temperature at inflammatory site by at least 2° C.
Protocol: 0.05 ml of a suspension of butter bacillus in liquid paraffin (10 mg/ml) was injected into the sole of the right hind foot of a male Fisher rat aged six weeks to thereby induce adjuvant inflammation. After three to five days, the surface temperature of the inflammatory foot was constantly higher by 8° to 10° C. than that of a normal foot. The test compounds as described hereinbelow and control compounds (i.e. indomethacin and pyroxycam) were each suspended in a 5% aqueous solution of gum arabic and orally administered to the rat in a dose of 5 ml/kg body weight. The local surface temperature of the inflammatory site was determined after two, four and six hours according to the method of H. Shirota et al. (cf. J. Pharmacol. Methods, 12, 35-43 (1984)). The dose required for lowering the surface temperature by at least 2° C. below that prior to the administration was calculated by averaging data of two animals, thus determining the anti-inflammatory titer of each test compound.

[2] = system: carrageenan edema at foot-sole; test: Effect of suppressing carrageenan edema at foot-sole; assay type: in vivo, Male Fisher rats; details: 10 mg/kg, one hour before carrageenan; volume measured three hours after carrageenan injection; groups of five animals
Protocol: Male Fisher rats aged five weeks were classified into groups each having five animals. Each test compound was suspended in a 5% aqueous solution of gum arabic and administered to each rat in a dose of […] body weight. After one hour, a 1% carrageenan solution was injected into the sole of the right hind foot of the animal to thereby induce inflammation. Three hours after the carrageenan injection, the volume of the sole of each hind foot of the animal was measured to calculate the volume-gain of the foot-sole to which carrageenan was injected. The obtained data was compared with those of the control groups, thus determining the suppression ratio of the test compound. The same test compounds as used in Pharmacological Example 1 were used.

mice = test: Acute Toxicity Test, mice; assay type: in vivo; details: oral, male mice, after fasting 17 to 24 hours
Protocol: (§1) LD 50 of the compound B, falling within the scope of the invention, was investigated in respect to acute toxicity, using rats and mice.
(§2) *Values were calculated according to BehrensKarber method. The oral
(§3) administration was conducted after a fasting treatment for 17 to 24 hours

[3] = Acute Toxicity Test, mice; assay type: in vivo; details: mouse, in vivo
Protocol: as §1, §2, §3

[4] = Acute Toxicity Test, rats; details: rat, in vivo
Protocol: as §1, §2, §3

[5] = oral, suspended in 5% gum arabic, temperature after two, four and six hours, averaging data of two animals

**Q.** With `CN1C(C(=O)Nc2ccccn2)=C(O)c2ccccc2S1(=O)=O` [Piroxicam, reference compound] as the compound, how does the TD50 at 6 h ([1]; in vivo) read?
**A.** The TD50 at 6 h was 23.1 mg/kg.

**Q.** What about the minimal effective dose (adjuvant inflammation; [5]) of the same compound?
**A.** The minimal effective dose was 0.3 mg/kg.

**Q.** Which Suppression ratio [2] does the source give for `CN1CCC(=Cc2cc(C(C)(C)C)c(O)c(C(C)(C)C)c2)C1=O` [Compound A, N-methyl-3-(3,5-di-tert-butyl-4-hydroxybenzylidene)-2-pyrrolidone] here?
**A.** The Suppression ratio was 36.1.

**Q.** What about the minimal effective dose (adjuvant inflammation; [5]) of the same compound?
**A.** Its minimal effective dose is 1 mg/kg.

**Q.** Which TD50 at 6 h ([1]; stomach) does the source give for `CC(C)(C)c1cc(C=C2CCNC2=O)cc(C(C)(C)C)c1O` [Compound C, 3-(3,5-di-tert-butyl-4-hydroxybenzylidene)-2-pyrrolidone] here?
**A.** Its TD50 at 6 h is 75.8 mg/kg.

**Q.** And the Suppression ratio [2]?
**A.** Its Suppression ratio is 38.5.

**Q.** What about the minimal effective dose (adjuvant inflammation; [5]) of the same compound?
**A.** The minimal effective dose was 0.3 mg/kg.

**Q.** What does the source list for `CON1CCC(=Cc2cc(C(C)(C)C)c(O)c(C(C)(C)C)c2)C1=O` [Compound B, N-methoxy-3-(3,5-di-tert-butyl-4-hydroxybenzylidene)-2-pyrrolidone]?
**A.** TD50 at 6 h ([1]; in vivo): 473 mg/kg; Suppression ratio [2]: 36.4; LD50 (mice): 4000~2000; LD50 ([3]; ip, abdominal, female mice, confidence range 443.9~1549.3): 805 mg/kg; LD50 ([3]; ip, abdominal, male mice, confidence range 523~2270): 1070 mg/kg; LD50 ([3]; po, female mice, after fasting 17 to 24 hours): 6870 mg/kg; LD50 ([3]; sc, hypodermic, female mice): > 4000 mg/kg; LD50 ([3]; sc, hypodermic, male mice): > 4000 mg/kg; LD50 ([4]; ip, abdominal, female rats, calculated according to Behrens-Karber method (*)): 46.9 mg/kg; LD50 ([4]; ip, abdominal, male rats, calculated according to Behrens-Karber method (*)): 96.7 mg/kg; LD50 ([4]; po, female rats, after fasting 17 to 24 hours, calculated according to Behrens-Karber method (*)): 161 mg/kg; LD50 ([4]; po, male rats, after fasting 17 to 24 hours): 354 mg/kg; LD50 ([4]; sc, hypodermic, female rats, confidence range 124~476): 291 mg/kg; LD50 ([4]; sc, hypodermic, male rats, calculated according to Behrens-Karber method (*)): 806 mg/kg; minimal effective dose (adjuvant inflammation; po): 0.3 mg/kg

**Q.** For `COc1ccc2c(c1)c(CC(=O)O)c(C)n2C(=O)c1ccc(Cl)cc1` [Indomethacin, indomethacin, reference compound], which TD50 at 6 h ([1]; in vivo) is on record?
**A.** Its TD50 at 6 h is 7.8 mg/kg.

**Q.** What about the Suppression ratio [2] of the same compound?
**A.** The Suppression ratio was 37.7.

**Q.** What about the minimal effective dose (adjuvant inflammation; po) of the same compound?
**A.** Its minimal effective dose is 0.3 mg/kg.
